Data from patent US6706663B2, “Herbicidal 3-heterocyclic substituted benzisothiazole and benzisoxazole compounds” (Wyeth, priority 2000, dated 2004).

Columns and labels:
[1] = system: TRZAWR (Wheat, Winter, cv Riband); assay: Postemergence herbicidal evaluation; format: in vivo, Triticum aestivum; details: postemergence
Summary of the method: (§1)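 Seedlings grown about two weeks in flats, sprayed, then kept under standard greenhouse care. Rated visually 4–5 weeks after treatment on a 0–9 scale (stand, vigour, malformation, size, chlorosis, overall appearance) relative to untreated control; repeat tests averaged.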

CYPIR (Cyperus iria) = assay: Flooded paddy, preemergence weed control; format: in vivo; details: rated 3-4 weeks after treatment, 0-9 rating scale
Summary of the method: (§2)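 In this preemergence paddy assay, weed seeds or organs are sown at up to 0.5 cm in silt loam and covered by 1.5–3 cm of water for the full test period. After treatment the pots are kept in a greenhouse, and herbicidal effect is rated 0-9 visually against a control.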

[2] = system: AMBEL (Ambrosia artemisifolia); assay: Preemergence herbicidal evaluation; format: in vivo, L.; details: preemergence, rated 4-5 weeks after treatment
Summary of the method: (§3)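 Applied before emergence as an aqueous acetone spray over seeded soil. Read-out: 0–9 visual rating covering plant stand, vigor, size, chlorosis, malformation and overall appearance compared with control, taken 4–5 weeks after spraying.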

[3] = system: ABUTH (Abutilon theophrasti); assay: Preemergence herbicidal evaluation; format: in vivo, Medic.; details: preemergence, rated 4-5 weeks after treatment
GLXMA (Soybean) = assay: Preemergence herbicidal evaluation; format: in vivo, Glycine max, (L.) Merr.; details: preemergence, rated 4-5 weeks after treatment
ZEAMX (Corn, Field) [4] = assay: Preemergence herbicidal evaluation; format: in vivo, Zea mays, L.; details: preemergence, rated 4-5 weeks after treatment
[5] = system: ECHORC (Echinochloa oryzoides); assay: Flooded paddy, preemergence weed control; format: in vivo, Echinochloa oryzoides (Ard.) Fritsch.; details: rated 3-4 weeks after treatment, 0-9 rating scale
Summary of the method: as §2

[6] = system: SAGPY (Sagittaria pygmaea); assay: Flooded paddy, preemergence weed control; format: in vivo, L.; details: rated 3-4 weeks after treatment, 0-9 rating scale
Summary of the method: as §2

[7] = system: ABUTH (Abutilon theophrasti); assay: Postemergence herbicidal evaluation; format: in vivo, Medic.; details: postemergence
Summary of the method: as §1

ZEAMX (Corn, Field) [8] = assay: Postemergence herbicidal evaluation; format: in vivo, Zea mays, L.; details: postemergence
Summary of the method: as §1

[9] = system: MOOVA (Monochoria vaginalis); assay: Flooded paddy, preemergence weed control; format: in vivo, Presl.; details: rated 3-4 weeks after treatment, 0-9 rating scale
Summary of the method: as §2

[10] = system: ECHCG (Echinochloa crus-galli); assay: Postemergence herbicidal evaluation; format: in vivo, (L.) Beau; details: postemergence
Summary of the method: as §1

[11] = system: IPOHE (Ipomoea hederacea); assay: Postemergence herbicidal evaluation; format: in vivo, (L.) Jacq.; details: postemergence
Summary of the method: as §1

GALAP (Galium aparine) [12] = assay: Preemergence herbicidal evaluation; format: in vivo; details: preemergence, rated 4-5 weeks after treatment
Summary of the method: as §3

ORYSAT (Rice, Tebonnet) [13] = assay: Flooded paddy, post-transplant rice tolerance; format: in vivo, Oryza sativa, (L.) Tebonnet; details: flooded paddy, post-transplant rice, rated 3-4 weeks after treatment, 0-9 rating scale
Summary of the method: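 Visual 0–9 injury rating against a control, covering stand, vigor, malformation, size, chlorosis and overall appearance. Treatment was post-transplant onto flooded containers (water 1.5–3 cm deep, silt loam) holding two ten-day-old cv. Tebonnet seedlings, maintained on greenhouse benches.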

[14] = system: GLXMAW (Soybean, Williams); assay: Postemergence herbicidal evaluation; format: in vivo, Glycine max, (L.) Merr. cv Williams; details: postemergence
Summary of the method: as §1

[15] = system: ECHCG (Echinochloa crus-galli); assay: Preemergence herbicidal evaluation; format: in vivo, (L.) Beau; details: preemergence, rated 4-5 weeks after treatment
Summary of the method: as §3

[16] = system: IPOHE (Ipomoea hederacea); assay: Preemergence herbicidal evaluation; format: in vivo, (L.) Jacq.; details: preemergence, rated 4-5 weeks after treatment
[17] = system: CHEAL (Chenopodium album); assay: Postemergence herbicidal evaluation; format: in vivo, L.; details: postemergence
Summary of the method: as §1

[18] = system: AMBEL (Ambrosia artemisifolia); assay: Postemergence herbicidal evaluation; format: in vivo, L.; details: postemergence
Summary of the method: as §1

[19] = system: CASOB (Cassia obtusifolia); assay: Postemergence herbicidal evaluation; format: in vivo, L.; details: postemergence
Summary of the method: as §1

GALAP (Galium aparine) [20] = assay: Postemergence herbicidal evaluation; format: in vivo; details: postemergence
Summary of the method: as §1

ORYSAT (Rice, Tebonnet) [21] = assay: Postemergence herbicidal evaluation; format: in vivo, Oryza sativa, (L.) Tebonnet; details: postemergence
Summary of the method: as §1

Cn1c(C(F)(F)F)cc(=O)n(-c2ccc3snc(-c4nc5ccccc5[nH]c4=O)c3c2)c1=O [Compound 90, 3-[3-(3,4-dihydro-3-oxo-2-quinoxalinyl)-1,2-benzisothiazol-5-yl]-1-methyl-6-(trifluoromethyl)uracil]
TRZAWR herbicidal rating ([1]; rate 0.0320 kg/ha): 2.8 | TRZAWR herbicidal rating ([1]; rate 0.0620 kg/ha): 2.8 | TRZAWR herbicidal rating ([1]; rate 0.1250 kg/ha): 2.0 | CYPIR herbicidal rating (CYPIR (Cyperus iria); rate 0.0320 kg/ha): 0.0 | CYPIR herbicidal rating (CYPIR (Cyperus iria); rate 0.1250 kg/ha): 0.0 | Preemergence herbicidal rating AMBEL ([2]; rate 0.0620 kg/ha): 0.0 | Preemergence herbicidal rating AMBEL ([2]; rate 0.1250 kg/ha): 1.5 | Preemergence herbicidal rating AMBEL ([2]; rate 0.2500 kg/ha): 3.5 | Preemergence herbicidal rating ABUTH ([3]; rate 0.0620 kg/ha): 0.0 | Preemergence herbicidal rating ABUTH ([3]; rate 0.1250 kg/ha): 3.5 | Preemergence herbicidal rating ABUTH ([3]; rate 0.2500 kg/ha): 9.0 | Preemergence herbicidal rating GLXMA (GLXMA (Soybean); rate 0.0620 kg/ha): 0.0 | Preemergence herbicidal rating GLXMA (GLXMA (Soybean); rate 0.1250 kg/ha): 0.0 | Preemergence herbicidal rating GLXMA (GLXMA (Soybean); rate 0.2500 kg/ha): 0.0 | Preemergence herbicidal rating ZEAMX (ZEAMX (Corn, Field) [4]; rate 0.0620 kg/ha): 0.0 | Preemergence herbicidal rating ZEAMX (ZEAMX (Corn, Field) [4]; rate 0.1250 kg/ha): 0.0 | Preemergence herbicidal rating ZEAMX (ZEAMX (Corn, Field) [4]; rate 0.2500 kg/ha): 0.0 | ECHORC herbicidal rating ([5]; rate 0.0320 kg/ha): 0.0 | ECHORC herbicidal rating ([5]; rate 0.1250 kg/ha): 0.0 | SAGPY herbicidal rating ([6]; rate 0.0320 kg/ha): 0.0 | SAGPY herbicidal rating ([6]; rate 0.1250 kg/ha): 0.0 | ABUTH herbicidal rating ([7]; rate 0.0320 kg/ha): 7.5 | ABUTH herbicidal rating ([7]; rate 0.0620 kg/ha): 7.5 | ABUTH herbicidal rating ([7]; rate 0.1250 kg/ha): 9.0 | ZEAMX herbicidal rating (ZEAMX (Corn, Field) [8]; rate 0.0320 kg/ha): 3.3 | ZEAMX herbicidal rating (ZEAMX (Corn, Field) [8]; rate 0.0620 kg/ha): 3.3 | ZEAMX herbicidal rating (ZEAMX (Corn, Field) [8]; rate 0.1250 kg/ha): 2.5 | MOOVA herbicidal rating ([9]; rate 0.0320 kg/ha): 0.0 | MOOVA herbicidal rating ([9]; rate 0.1250 kg/ha): 0.0 | ECHCG herbicidal rating ([10]; rate 0.0320 kg/ha): 2.0 | ECHCG herbicidal rating ([10]; rate 0.0620 kg/ha): 3.0 | ECHCG herbicidal rating ([10]; rate 0.1250 kg/ha): 4.0 | IPOHE herbicidal rating ([11]; rate 0.0320 kg/ha): 6.5 | IPOHE herbicidal rating ([11]; rate 0.0620 kg/ha): 8.0 | IPOHE herbicidal rating ([11]; rate 0.1250 kg/ha): 9.0 | Preemergence herbicidal rating GALAP (GALAP (Galium aparine) [12]; rate 0.0620 kg/ha): 0.0 | Preemergence herbicidal rating GALAP (GALAP (Galium aparine) [12]; rate 0.1250 kg/ha): 0.0 | Preemergence herbicidal rating GALAP (GALAP (Galium aparine) [12]; rate 0.2500 kg/ha): 3.0 | ORYSAT herbicidal rating (transplanted rice tolerance) (ORYSAT (Rice, Tebonnet) [13]; rate 0.0320 kg/ha): 0.0 | ORYSAT herbicidal rating (transplanted rice tolerance) (ORYSAT (Rice, Tebonnet) [13]; rate 0.1250 kg/ha): 0.0 | GLXMAW herbicidal rating ([14]; rate 0.0320 kg/ha): 6.0 | GLXMAW herbicidal rating ([14]; rate 0.0620 kg/ha): 6.3 | GLXMAW herbicidal rating ([14]; rate 0.1250 kg/ha): 6.5 | Preemergence herbicidal rating ECHCG ([15]; rate 0.0620 kg/ha): 0.0 | Preemergence herbicidal rating ECHCG ([15]; rate 0.1250 kg/ha): 0.0 | Preemergence herbicidal rating ECHCG ([15]; rate 0.2500 kg/ha): 1.0 | Preemergence herbicidal rating IPOHE ([16]; rate 0.0620 kg/ha): 0.0 | Preemergence herbicidal rating IPOHE ([16]; rate 0.1250 kg/ha): 0.0 | Preemergence herbicidal rating IPOHE ([16]; rate 0.2500 kg/ha): 1.5 | CHEAL herbicidal rating ([17]; rate 0.0320 kg/ha): 9.0 | CHEAL herbicidal rating ([17]; rate 0.0620 kg/ha): 9.0 | CHEAL herbicidal rating ([17]; rate 0.1250 kg/ha): 9.0 | AMBEL herbicidal rating ([18]; rate 0.0320 kg/ha): 6.5 | AMBEL herbicidal rating ([18]; rate 0.0620 kg/ha): 6.5 | AMBEL herbicidal rating ([18]; rate 0.1250 kg/ha): 9.0 | CASOB herbicidal rating ([19]; rate 0.0320 kg/ha): 5.0 | CASOB herbicidal rating ([19]; rate 0.0620 kg/ha): 5.0 | CASOB herbicidal rating ([19]; rate 0.1250 kg/ha): 5.0 | GALAP herbicidal rating (GALAP (Galium aparine) [20]; rate 0.0320 kg/ha): 4.0 | GALAP herbicidal rating (GALAP (Galium aparine) [20]; rate 0.0620 kg/ha): 4.0 | GALAP herbicidal rating (GALAP (Galium aparine) [20]; rate 0.1250 kg/ha): 5.0 | ORYSAT herbicidal rating (ORYSAT (Rice, Tebonnet) [21]; rate 0.0320 kg/ha): 2.0 | ORYSAT herbicidal rating (ORYSAT (Rice, Tebonnet) [21]; rate 0.0620 kg/ha): 2.5 | ORYSAT herbicidal rating (ORYSAT (Rice, Tebonnet) [21]; rate 0.1250 kg/ha): 2.0
